The values below come from patent publication US20210221784A1, “COMPOUNDS AND COMPOSITIONS FOR THE TREATMENT OF PAIN” (Université de Strasbourg, priority 2018, published 2021).

Structures can show the parent of a compound that is named as a salt.

Usually Ki stands for a dissociation constant, usually derived from enzyme kinetics or from competition with a known ligand. The IC50 is the concentration needed to halve the response being measured. In general, melting point refers to the temperature, or range, at which the solid turns liquid.

For the first series, the target named is T1, hNPFFR1 (Homo sapiens, UniProt Q9GZQ6).
T1 construct: expressed in transfected cells; membranes
T1 sequence (Q9GZQ6 whole entry): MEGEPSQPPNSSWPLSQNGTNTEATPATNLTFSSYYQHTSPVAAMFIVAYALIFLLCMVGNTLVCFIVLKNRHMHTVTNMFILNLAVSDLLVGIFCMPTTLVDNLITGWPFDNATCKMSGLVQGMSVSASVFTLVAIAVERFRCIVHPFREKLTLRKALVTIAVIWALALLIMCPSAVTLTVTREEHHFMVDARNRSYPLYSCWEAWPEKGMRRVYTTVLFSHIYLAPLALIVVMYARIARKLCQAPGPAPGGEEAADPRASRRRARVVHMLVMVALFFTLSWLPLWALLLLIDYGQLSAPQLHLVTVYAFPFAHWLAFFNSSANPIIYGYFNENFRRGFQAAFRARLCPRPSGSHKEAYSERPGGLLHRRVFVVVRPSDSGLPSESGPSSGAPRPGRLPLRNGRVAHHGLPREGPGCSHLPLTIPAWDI
The experiment in a line: Radioligand binding competition, membranes from CHO cells expressing hNPFFR1. The settings on record: 0.015 nM [D-Tyr1[125I], N-MePhe3]-NPFF, 1 hr at 25° C., read-out: NPFF1-R Ki. Here is the method: Competition experiments with membranes from CHO cells stably expressing hNPFFR1 and hNPFFR2 were performed essentially as described in Elhabazi, K., et al. Neuropharmacology, 2013. 75C, 164-171., Briefly, hNPFFR1 or hNPFFR2 membranes (5 to 10 μg of proteins) were incubated (1 hr at 25° C.; 0.25 mL total volume) with 0.015 nM [D-Tyr1[125I], N-MePhe3]-NPFF (Hartmann Analytic GmbH) in 50 mM HEPES (pH 7.4), 1 mM CaCl2, 1 mM MgCl2 and 0.1% bovine serum albumin. Non-specific binding was determined in the presence of 10 μM RFRP-3. Incubation was terminated by rapid filtration through a 96-well GF/B unifilter apparatus (Perkin Elmer Life and Analytical Sciences, Courtaboeuf, France). Unifilters were washed five times with binding buffer, then dried for 1 h at 65° C. After addition of 40 μL scintillation cocktail (Microscint-O, Perkin Elmer) per well, bound radioactivity was determined on a TopCount scintillation counter (Perkin Elmer).
With `Nc1ccc(-c2ccccc2OC(F)(F)F)c(N)n1` [Compound 2c, 3-(2-(trifluoromethoxy)phenyl) pyridine-2,6-diamine], the Ki came out at 0.034 µM.

Consider `Nc1ccc(-c2ccncc2)c(N)n1` [Compound 3d, [3,4′-bipyridine]-2,6-diamine], for which the Ki came out at 5.39 µM.

As to `Nc1ccc(-c2cccnc2)c(N)n1` [Compound 3e, [3,3′-bipyridine]-2,6-diamine], the Ki was 1.93 µM.

With `Nc1ccc(-c2ccccc2)c(N)n1` [Compound 1a, 3-phenylpyridine-2,6-diamine], the Ki was determined as 0.188 µM.

A further series deals with T2, human NPFFR1 (hNPFFR1) receptor (Homo sapiens, UniProt Q9GZQ6).
T2 construct: expressed in transfected cells; host or cells: HEK-293 T cells, transient co-transfection
T2 sequence (Q9GZQ6 whole entry): as above
The experiment in a line: Human NPFFR1 evaluation using BRET biosensors in HEK-293 T cells. Format: cell-based. The settings on record: hNPFFR1 in HEK-293 T cells, stimulated by EC80 RFRP-3, read-out: IC50 of antagonist activity. Here is the method:
Compounds of the present invention were tested successively for their agonist and antagonist activities on human NPFFR1 (hNPFFR1) receptor transiently over-expressed in HEK-293 T cells. Compounds exert agonist activity if, by themselves in absence of neuropeptide RFRP-3 (also named NPVF) they activate hNPFFR1; and they exert antagonist activity if they decrease the action of RFRP-3 on the receptor. The assay used to measure compound activity is based on BRET (Bioluminescence Resonance Energy Transfer) biosensors and is designed to monitor the plasma membrane translocation of protein that interacts with specific Ga subunit. The specific effector (luciferase tagged: BRET donor) recruited at the membrane will be in close proximity to a plasma membrane anchor (GFP tagged: BRET acceptor) to induce a BRET signal (Ramdan et al, 2006, Chapter 5, Current Protocols in Neuroscience).
HEK-293 T cells are maintained in Dulbecco's Modified Eagle's Medium supplemented with 10% Foetal Calf Serum, 1% Penicillin/Streptomycin at 37° C./5% CO2. Cells are co-transfected using polyethylenimine (25 kDa linear) with four DNA plasmids encoding; hNPFFR1, GαoB, a Gi family specific intracellular effector fused to luciferase (BRET donor), a plasma membrane effector fused to GFP (BRET acceptor). After transfection, cells are cultured for 48 h at 37° C./5% CO2.
Receptor activity is detected by changes in BRET signal.
On the day of the assay, cells are detached using trypsin 0.05%, resuspended in assay buffer (1.8 mM CaCl2, 1 mM MgCl2, 2.7 mM KCl, 137 mM NaCl, 0.4 mM NaH2PO4, 5.5 mM D-Glucose, 11.9 mM NaHCO3, 25 mM Hepes) and seeded in 384 well plate at a density of 20,000 cells per well. Then, plates are equilibrated 3.5 hours at 37° C. before adding compounds.
Compounds and luciferase substrate are added to the cells using an automated device (Freedom Evo®, Tecan) and BRET readings are collected on EnVision (PerkinElmer) with specific filters (410 nm BW 80 nm, 515 nm BW 30 nm).
Agonist and antagonist activities of compounds are consecutively evaluated on the same cell plate. Agonist activity is first measured after 10 minutes incubation with compound alone on the cells. Then, cells are stimulated by an EC80 RFRP-3 concentration and luminescence is recorded for additional 10 minutes. EC80 RFRP-3 concentration is the concentration giving 80% of the maximal RFRP-3 response. Agonist or antagonist activities are evaluated in comparison to basal signals evoked by assay buffer or EC80 RFRP-3 alone, respectively.
For IC50 determination, a dose-response test is performed using 20 concentrations (ranging over 6 logs) of each compound. Dose-response curves are fitted using the sigmoidal dose-response (variable slope) analysis in GraphPad Prism software (GraphPad Software) and IC50 of antagonist activity is calculated. Dose-response experiments are performed in duplicate, in two independent experiments.
(In general: In BRET a luciferase serves as donor, and the signal depends on an acceptor being close.)
`Nc1ccc(-c2ccccc2OC(F)(F)F)c(N)n1` [Compound 2c, 3-(2-(trifluoromethoxy)phenyl) pyridine-2,6-diamine]: the IC50 lay within 0.5 to 1 µM.

Take `CCc1nc(N)ccc1-c1cccc(Cl)c1C` [Compound 29, 5-(3-chloro-2-methyl-phenyl)-6-ethyl-pyridin-2-ylamine]: the IC50 lay within 0.1 to 0.5 µM.

Take `COc1ccncc1-c1ccc(N)nc1N` [Compound 88, 3-(4-methoxy-3-pyridyl)pyridine-2,6-diamine]: the IC50 is greater than 1 µM.

Take `Nc1ccc(-c2ccccc2Oc2ccccc2)c(N)n1` [Compound 43, 3-(2-Phenoxy-phenyl)-pyridine-2,6-diamine]: the half-inhibitory concentration (IC50) is 0.1 to 0.5 µM.

Regarding `Nc1ccc(-c2ccccc2)c(N)n1` [Compound 1a, 3-phenylpyridine-2,6-diamine], the IC50 is greater than 1 µM.

As for `Nc1ccc(-c2ccccc2OC2CC2)c(N)n1` [Compound 48, 3-(2-Cyclopropoxy-phenyl)-pyridine-2,6-diamine], the IC50 lay in the range of 0.1 to 0.5 µM.

For `COc1cccc(OC(C)C)c1-c1ccc(N)nc1N` [Compound 39, 3-(2-Isopropoxy-6-methoxy-phenyl)-pyridine-2,6-diamine], the IC50 was greater than 1 µM.

With `Nc1ccc(-c2ccc(Cl)cc2OC2CCCC2)c(N)n1` [Compound 47, 3-(4-Chloro-2-cyclopentyloxy-phenyl)-pyridine-2,6-diamine], the IC50 fell in the range of 0.5 to 1 µM.

As to `CN(C)c1ccccc1-c1ccc(N)nc1N` [Compound 61, 3-(2-Dimethylamino-phenyl)-pyridine-2,6-diamine], the IC50 lay within 0.1 to 0.5 µM.

In the case of `Nc1ccc(-c2ccccc2Cc2ccccc2)c(N)n1` [Compound 44, 3-(2-Benzyl-phenyl)-pyridine-2,6-diamine], the IC50 was 0.1 to 0.5 µM.

Regarding `Nc1ccc(-c2cc(Cl)ccc2C2CC2)c(N)n1` [Compound 55, 3-(5-Chloro-2-cyclopropyl-phenyl)-pyridine-2,6-diamine], the IC50 is 0.1 to 0.5 µM.

`Nc1ccc(-c2ccccc2C2CC2)c(N)n1` [Compound 42, 3-(2-Cyclopropyl-phenyl)-pyridine-2,6-diamine]: the IC50 was less than 0.1 µM.

System in the next series: not given
Test: not given
Conditions: not given
`CN(C)c1ccc(-c2ccc(N)nc2N)c2ccccc12.Cl` had a melting point of 175 to 181 °C.

For `COc1ccccc1-c1ccc(N)nc1OCCN` [Compound 37, 6-(2-Amino-ethoxy)-5-(2-methoxy-phenyl)-pyridin-2-ylamine], the melting point lay in the range of 197 to 203 °C.

In the case of `Nc1ccc(-c2ccc(N3CCOCC3)nc2)c(N)n1` [Compound 78, 3-(6-morpholino-3-pyridyl)pyridine-2,6-diamine], the melting point is 201 to 205 °C.

Compound `Cc1n[nH]c(C)c1-c1ccc(N)nc1N` [Compound 90, 3-(3,5-dimethyl-1H-pyrazol-4-yl)pyridine-2,6-diamine] registered a melting point greater than 250 °C.

As to `NCCOc1nc(N)ccc1-c1cccc(Cl)c1Cl` (as salt: hydrochloride) [Compound 38, 6-(2-Amino-ethoxy)-5-(2,3-dichloro-phenyl)-pyridin-2-ylamine], the melting point was in the range of 183 to 190 °C.

As to `CNc1ccc(-c2ccc(N)nc2N)cn1` [Compound 80, 3-[6-(methylamino)-3-pyridyl]pyridine-2,6-diamine], the melting point was 178 to 182 °C.

`Nc1ccc(-c2cccnc2F)c(N)n1` [Compound 87, 3-(2-fluoro-3-pyridyl)pyridine-2,6-diamine]: the melting point lay within 184 to 188 °C.

The compound `Nc1ccc(-c2cccc(Cl)c2Cl)c(F)n1` [Compound 33, 5-(2,3-Dichloro-phenyl)-6-fluoro-pyridin-2-ylamine] showed a melting point of 139 to 144 °C.

In the case of `Nc1ncc(-c2cccc(Cl)c2Cl)cc1F` [Compound 16, 5-(2,3-Dichloro-phenyl)-3-fluoro-pyridin-2-ylamine], the melting point was 130 to 136 °C.

For the compound `Nc1ccc(-c2ccc(N)nc2N)cn1` [Compound 82, 3-(6-amino-3-pyridyl)pyridine-2,6-diamine], the melting point lay within 220 to 240 °C.

`Cc1cc(N)nc(C)c1-c1cccc(Cl)c1Cl` [Compound 28, 5-(2,3-Dichloro-phenyl)-4,6-dimethyl-pyridin-2-ylamine]: the melting point was in the range of 140 to 145 °C.

For the compound `COc1ccccc1-c1cnc(N)c(C)c1` [Compound 13, 5-(2-Methoxy-phenyl)-3-methyl-pyridin-2-ylamine], the melting point lay in the range of 92 to 95 °C.

As to `Nc1ccc(-c2cccc(Cl)c2Cl)c(C(F)(F)F)n1` [Compound 34, 5-(2,3-Dichloro-phenyl)-6-trifluoromethyl-pyridin-2-ylamine], the melting point fell in the range of 165 to 170 °C.

`COc1ccccc1-c1cnc(N)c(C(F)(F)F)c1` [Compound 14, 5-(2-Methoxy-phenyl)-3-trifluoromethyl-pyridin-2-ylamine]: the melting point lay within 63 to 67 °C.

With `COc1ccccc1-c1cnc(N)cc1OC` [Compound 20, 4-Methoxy-5-(2-methoxy-phenyl)-pyridin-2-ylamine], the melting point is 140 to 144 °C.

For `Cl.Nc1cc(OCC(F)(F)F)c(-c2cccc(Cl)c2Cl)cn1`, the melting point was greater than 250 °C.

For the compound `COc1ccccc1-c1cnc(N)cc1OCCN.Cl`, the melting point was in the range of 218 to 224 °C.

As to `Nc1ccc(-c2cnc(N)c(C(F)(F)F)c2)c(N)n1` [Compound 83, 3-[6-amino-5-(trifluoromethyl)-3-pyridyl]pyridine-2,6-diamine], the melting point fell in the range of 154 to 155 °C.

Turning to `CC(=O)Nc1ccccc1-c1ccc(N)nc1N` [Compound 62, N-[2-(2,6-Diamino-pyridin-3-yl)-phenyl]-acetamide], the melting point fell in the range of 60 to 70 °C.

`COc1cc(N)ncc1-c1cccc(Cl)c1Cl.Cl` gave a melting point greater than 250 °C.

Compound `Nc1ccc(-c2ccc(N3CCCCC3)nc2)c(N)n1` [Compound 79, 3-[6-(1-piperidyl)-3-pyridyl]pyridine-2,6-diamine] displayed a melting point of 155 to 159 °C.

For `COc1ccccc1-c1ccc(N)nc1F` [Compound 32, 6-Fluoro-5-(2-methoxy-phenyl)-pyridin-2-ylamine], the melting point fell in the range of 175 to 178 °C.

`COc1ccccc1-c1ccc(N)nc1OC` [Compound 35, 6-Methoxy-5-(2-methoxy-phenyl)-pyridin-2-ylamine] yielded a melting point of 85 to 87 °C.

The compound `COc1ccccc1-c1cnc(N)cc1F` [Compound 18, 4-Fluoro-5-(2-methoxy-phenyl)-pyridin-2-ylamine] registered a melting point of 65 to 70 °C.

For the compound `Cc1c(Cl)cccc1-c1cc(F)c(N)nc1N` [Compound 66, 3-(3-Chloro-2-methyl-phenyl)-5-fluoro-pyridine-2,6-diamine], the melting point fell in the range of 128 to 135 °C.

Turning to `COc1ccccc1-c1cnc(N)cc1OCC(F)(F)F.Cl`, the melting point lay within 238 to 240 °C.
